# US10399940B2, “Substituted pyrrolidines and methods of use” (AbbVie S.à.r.l., priority 2016, dated 2019)
# Read-outs that look alike come from different tables or passages of the source.
# Target: T1, F508delCFTR (Homo sapiens, UniProt P13569, DEL508-508)
# T1 construct: expressed in transfected cells; host or cells: CFBE41o- (human lung derived epithelial cell line), doxycycline-inducible expression
# Assay: Cell Surface Expression-Horse Radish Peroxidase (CSE-HRP) assay
# Assay type: cell-based
# Conditions: CFBE41o-F508delCFTR-HRP cells; for Maximum % activity (with co-corrector): with co-corrector (2 μM); for Maximum % activity (with co-corrector) / Maximum % activity (without co-corrector): normalized to on-plate positive control, highest concentration 20 μM
# Experimental: Cell Surface Expression-Horse Radish Peroxidase (CSE-HRP) Assay
# A cellular assay for measuring the F508delCFTR cell surface expression after correction with test compounds either without or with a co-corrector (2 μM of 3-[(2R,4R)-4-({[1-(2,2-difluoro-1,3-benzodioxol-5-yl)cyclopropyl]carbonyl}amino)-7-methoxy-3,4-dihydro-2H-chromen-2-yl]benzoic acid), was developed in human lung derived epithelial cell line (CFBE41o-) (Veit G et al, (2012) Mol Biol Cell. 23(21): 4188-4202). The development was achieved by expressing the F508delCFTR mutation along with a horseradish peroxidase (HRP) in the fourth exofacial loop, and then measuring the HRP activity using luminescence readout from these cells, CFBE41o-F508delCFTR-HRP, that were incubated overnight with the test corrector compounds, either without or with the co-corrector. For this primary assay, the CFBE41o-F508delCFTR-HRP cells were plated in 384-well plates (Greiner Bio-one; Cat 781080) at 4,000 cells/well along with 0.5 μg/mL doxycycline to induce the F508delCFTR-HRP expression and further incubated at 37° C., 5% CO2 for 72 hours. The test compounds were then added either without or with a co-corrector at the required concentrations and further incubated for 18-24 hours at 33° C. The highest concentration tested was 20 μM with an 8-point concentration response curve using a 3-fold dilution in both the test compound without or with the co-corrector. Three replicate plates were run to determine one EC50. All plates contained negative controls (dimethyl sulfoxide, DMSO) and positive control (2 μM of 3-[(2R,4R)-4-({[1-(2,2-difluoro-1,3-benzodioxol-5-yl)cyclopropyl]carbonyl}amino)-7-methoxy-3,4-dihydro-2H-chromen-2-yl]benzoic acid) as well as on-plate concentration response of the positive control. Post incubation, the plates were washed 5× times with Dulbecco's phosphate buffered saline (DPBS), followed by the addition of the HRP substrate, luminol (50 μL), and measuring the HRP activity using luminescence readout on EnVision® Multilabel Plate Reader (Perkin Elmer; product number 2104-0010). The raw counts from the experiment were analyzed using Accelrys® Assay Explorer v3.3.
# Z′ greater than 0.5 was used as passing quality control criteria for the plates.
# The Z′ is defined as: 1−[3*SDPositive Control+3*SDNegative Control/Absolute(MeanPositive Control−MeanNegative Control)] wherein “SD” is standard deviation.
# The % activity measured at each of the 8 test concentrations of the test compound added either without or with a co-corrector (2 μM of 3-[(2R,4R)-4-({[1-(2,2-difluoro-1,3-benzodioxol-5-yl)cyclopropyl]carbonyl}amino)-7-methoxy-3,4-dihydro-2H-chromen-2-yl]benzoic acid) was normalized to the on-plate positive control using the following formulae: % activity(Test compound without co-corrector)=[(test compound without co-corrector response−DMSO response)/(positive control response−DMSO response)]*100 % activity(Test compound with co-corrector)=[(test compound with co-corrector response−DMSO response)/(positive control response−DMSO response)]*100
# The maximum % activity achieved for the test compound either without or with a co-corrector at any tested concentration is presented in Table 1 along with the respective EC50's calculated using the following general sigmoidal curve with variable Hill slope equation (described as Model 42 in the Accelrys® Assay Explorer v3.3 software): y=(a−d)/(1+(x/c)^b)+d
# General sigmoidal curve with concentration, response, top, bottom, EC50 and Hill slope. This model describes a sigmoidal curve with an adjustable baseline, a. The equation can be used to fit curves where response is either increasing or decreasing with respect to the independent variable, “x”. • “x” is a concentration of drug under test. • “y” is the response. • “a” is the maximum response, and “d” is the minimum response • “c” is the inflection point (EC50) for the curve. That is, “y” is halfway between the lower and upper asymptotes when x=c. “b” is the slope-factor or Hill coefficient. […]
# [1] = test compound without co-corrector, 18-24 hours at 33° C., read-out: EC50 (without co-corrector)
# [2] = with co-corrector (2 μM of 3-[(2R,4R)-4-({[1-(2,2-difluoro-1,3-benzodioxol-5-yl)cyclopropyl]carbonyl}amino)-7-methoxy-3,4-dihydro-2H-chromen-2-yl]benzoic acid), read-out: EC50 (with co-corrector)
# T1 sequence (P13569 with tags, fused parts or gaps DEL508-508): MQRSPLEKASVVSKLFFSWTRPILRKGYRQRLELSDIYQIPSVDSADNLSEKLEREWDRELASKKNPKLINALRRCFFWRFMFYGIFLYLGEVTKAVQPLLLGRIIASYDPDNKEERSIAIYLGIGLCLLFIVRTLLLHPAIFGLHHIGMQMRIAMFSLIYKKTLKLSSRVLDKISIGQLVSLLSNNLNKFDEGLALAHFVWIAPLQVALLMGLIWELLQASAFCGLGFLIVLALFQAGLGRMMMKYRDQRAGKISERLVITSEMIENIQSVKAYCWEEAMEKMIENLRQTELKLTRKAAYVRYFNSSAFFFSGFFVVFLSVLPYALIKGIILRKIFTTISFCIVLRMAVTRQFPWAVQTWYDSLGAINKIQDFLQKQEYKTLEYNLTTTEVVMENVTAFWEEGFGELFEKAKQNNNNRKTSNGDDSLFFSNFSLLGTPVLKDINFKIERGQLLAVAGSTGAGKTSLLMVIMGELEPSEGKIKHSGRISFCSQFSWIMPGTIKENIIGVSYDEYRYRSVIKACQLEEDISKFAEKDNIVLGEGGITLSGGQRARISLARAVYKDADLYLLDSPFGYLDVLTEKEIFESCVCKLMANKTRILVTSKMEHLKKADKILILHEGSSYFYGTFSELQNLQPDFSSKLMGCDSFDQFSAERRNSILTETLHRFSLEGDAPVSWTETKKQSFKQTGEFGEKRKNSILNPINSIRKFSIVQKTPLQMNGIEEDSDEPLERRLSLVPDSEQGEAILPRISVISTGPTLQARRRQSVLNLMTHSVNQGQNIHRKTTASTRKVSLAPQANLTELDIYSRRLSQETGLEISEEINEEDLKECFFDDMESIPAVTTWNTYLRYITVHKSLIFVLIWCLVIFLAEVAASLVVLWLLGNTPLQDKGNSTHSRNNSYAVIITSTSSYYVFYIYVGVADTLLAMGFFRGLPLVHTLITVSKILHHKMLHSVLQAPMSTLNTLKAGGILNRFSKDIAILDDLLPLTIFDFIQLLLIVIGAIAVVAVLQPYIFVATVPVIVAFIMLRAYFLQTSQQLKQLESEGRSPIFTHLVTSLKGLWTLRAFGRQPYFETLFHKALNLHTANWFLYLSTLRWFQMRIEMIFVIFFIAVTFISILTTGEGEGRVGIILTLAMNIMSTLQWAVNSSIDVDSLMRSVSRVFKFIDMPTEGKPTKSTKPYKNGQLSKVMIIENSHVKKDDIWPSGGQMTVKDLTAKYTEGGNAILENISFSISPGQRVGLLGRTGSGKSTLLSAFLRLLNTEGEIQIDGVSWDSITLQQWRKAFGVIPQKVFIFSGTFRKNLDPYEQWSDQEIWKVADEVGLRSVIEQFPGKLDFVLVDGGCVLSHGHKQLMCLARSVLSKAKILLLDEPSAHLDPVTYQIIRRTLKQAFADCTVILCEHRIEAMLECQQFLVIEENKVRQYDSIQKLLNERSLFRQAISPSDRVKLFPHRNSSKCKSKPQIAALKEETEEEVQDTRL
Compound,EC50 [1],EC50 [2],Maximum % activity (with co-corrector),Maximum % activity (without co-corrector)
"COc1ccc(C(F)(F)F)cc1CO[C@@H]1[C@@H](C(C)(C)C)[C@H](C(=O)O)N(C(=O)[C@H]2CCC[C@H](OC)C2)[C@@H]1c1ccccc1 [Example 27, (2R,3S,4R,5R)-3-tert-butyl-1-[(1S,3S)-3-methoxycyclohexane-1-carbonyl]-4-{[2-methoxy-5-(trifluoromethyl)phenyl]methoxy}-5-phenylpyrrolidine-2-carboxylic acid]",1 to 10 µM,< 1 µM,+++ (≥350),++ (≥100 and <200)
"CO[C@H]1CCC[C@H](C(=O)N2[C@H](c3ccccc3)[C@H](Oc3cc(C(F)(F)F)cc(C)n3)[C@@H](C(C)(C)C)[C@@H]2C(=O)O)C1 [Example 28, (2R,3S,4R,5R)-3-tert-butyl-1-[(1S,3S)-3-methoxycyclohexane-1-carbonyl]-4-{[6-methyl-4-(trifluoromethyl)pyridin-2-yl]oxy}-5-phenylpyrrolidine-2-carboxylic acid]",1 to 10 µM,1 to 10 µM,+++ (≥350),++ (≥100 and <200)
"COc1cc(C(F)(F)F)ccc1CO[C@H]1[C@H](C(C)(C)C)[C@@H](C(=O)O)N(C(=O)[C@H]2CCC[C@H](OC)C2)[C@H]1c1ccccc1 [Example 32, (2S,3R,4S,5S)-3-tert-butyl-1-[(1S,3S)-3-methoxycyclohexane-1-carbonyl]-4-{[2-methoxy-4-(trifluoromethyl)phenyl]methoxy}-5-phenylpyrrolidine-2-carboxylic acid]",1 to 10 µM,1 to 10 µM,+++ (≥350),+ (<100)
"COc1cc(C(F)(F)F)ccc1CO[C@H]1[C@H](C(C)(C)C)[C@@H](C(=O)O)N(C(=O)[C@@H]2CCC[C@@H](OC)C2)[C@H]1c1ccccc1 [Example 33, (2S,3R,4S,5S)-3-tert-butyl-1-[(1R,3R)-3-methoxycyclohexane-1-carbonyl]-4-{[2-methoxy-4-(trifluoromethyl)phenyl]methoxy}-5-phenylpyrrolidine-2-carboxylic acid]",1 to 10 µM,1 to 10 µM,+++ (≥350),++ (≥100 and <200)
"COc1ccc(Br)cc1CO[C@H]1[C@H](C(C)(C)C)[C@@H](C(=O)O)N(C(=O)OC(C)C)[C@H]1c1ccccc1 [Example 36, (2S,3R,4S,5S)-4-[(5-bromo-2-methoxyphenyl)methoxy]-3-tert-butyl-5-phenyl-1-{[(propan-2-yl)oxy]carbonyl}pyrrolidine-2-carboxylic acid]",1 to 10 µM,1 to 10 µM,+++ (≥350),++ (≥100 and <200)

# More lines, now with the values ahead:
EC50 [1],EC50 [2],Maximum % activity (with co-corrector),Maximum % activity (without co-corrector),Compound
> 10 µM,> 10 µM,+ (<150),+ (<100),"COc1ccc(C(F)(F)F)cc1CO[C@H]1[C@H](C(C)(C)C)[C@@H](C(=O)NS(=O)(=O)C2(C)CC2)N(C(=O)C2CCCCC2)[C@H]1c1ccccc1 [Example 22, (2S,3R,4S,5S)-3-tert-butyl-1-(cyclohexanecarbonyl)-4-{[2-methoxy-5-(trifluoromethyl)phenyl]methoxy}-N-(1-methylcyclopropane-1-sulfonyl)-5-phenylpyrrolidine-2-carboxamide]"
> 10 µM,1 to 10 µM,++ (≥150 and <350),+ (<100),"COc1ccc(C(F)(F)F)cc1CO[C@H]1[C@H](C(C)(C)C)[C@@H](C(=O)NS(=O)(=O)C2CC2)N(C(=O)C2CCCCC2)[C@H]1c1ccccc1 [Example 23, (2S,3R,4S,5S)-3-tert-butyl-1-(cyclohexanecarbonyl)-N-(cyclopropanesulfonyl)-4-{[2-methoxy-5-(trifluoromethyl)phenyl]methoxy}-5-phenylpyrrolidine-2-carboxamide]"
> 10 µM,1 to 10 µM,++ (≥150 and <350),+ (<100),"CCS(=O)(=O)NC(=O)[C@@H]1[C@@H](C(C)(C)C)[C@H](OCc2cc(C(F)(F)F)ccc2OC)[C@H](c2ccccc2)N1C(=O)C1CCCCC1 [Example 24, (2S,3R,4S,5S)-3-tert-butyl-1-(cyclohexanecarbonyl)-N-(ethanesulfonyl)-4-{[2-methoxy-5-(trifluoromethyl)phenyl]methoxy}-5-phenylpyrrolidine-2-carboxamide]"
> 10 µM,1 to 10 µM,++ (≥150 and <350),+ (<100),"COc1ccc(C(F)(F)F)cc1CO[C@H]1[C@H](C(C)(C)C)[C@@H](C(=O)NS(=O)(=O)N(C)C)N(C(=O)C2CCCCC2)[C@H]1c1ccccc1 [Example 25, (2S,3R,4S,5S)-3-tert-butyl-1-(cyclohexanecarbonyl)-N-(dimethylsulfamoyl)-4-{[2-methoxy-5-(trifluoromethyl)phenyl]methoxy}-5-phenylpyrrolidine-2-carboxamide]"
1 to 10 µM,1 to 10 µM,++ (≥150 and <350),+ (<100),"COc1ccc(C(F)(F)F)cc1CO[C@H]1[C@H](C(C)(C)C)[C@@H](C(=O)NS(C)(=O)=O)N(C(=O)C2CCCCC2)[C@H]1c1ccccc1 [Example 26, (2S,3R,4S,5S)-3-tert-butyl-1-(cyclohexanecarbonyl)-N-(methanesulfonyl)-4-{[2-methoxy-5-(trifluoromethyl)phenyl]methoxy}-5-phenylpyrrolidine-2-carboxamide]"
1 to 10 µM,< 1 µM,+++ (≥350),++ (≥100 and <200),"COc1ccc(C(F)(F)F)cc1CO[C@H]1[C@H](C(C)(C)C)[C@@H](C(=O)O)N(C(=O)[C@H]2CCC[C@H](OC)C2)[C@H]1c1ccccc1 [Example 30, (2S,3R,4S,5S)-3-tert-butyl-1-[(1S,3S)-3-methoxycyclohexane-1-carbonyl]-4-{[2-methoxy-5-(trifluoromethyl)phenyl]methoxy}-5-phenylpyrrolidine-2-carboxylic acid]"
1 to 10 µM,< 1 µM,+++ (≥350),+++ (≥200),"COc1ccc(C(F)(F)F)cc1CO[C@H]1[C@H](C(C)(C)C)[C@@H](C(=O)O)N(C(=O)[C@@H]2CCC[C@@H](OC)C2)[C@H]1c1ccccc1 [Example 31, (2S,3R,4S,5S)-3-tert-butyl-1-[(1R,3R)-3-methoxycyclohexane-1-carbonyl]-4-{[2-methoxy-5-(trifluoromethyl)phenyl]methoxy}-5-phenylpyrrolidine-2-carboxylic acid]"
